Measurements reported in PubChem BioAssay (NCI).
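Compound exposure: 48 hours, 5 concentrations, 96-well plates. TGI denotes the concentration required for complete inhibition of growth.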

Columns and labels:
Assay in all cases: growth of human tumour cells (NCI), 48 h
[1] = tested on: ACHN renal
[2] = tested on: A498 renal
[3] = tested on: OVCAR-3 ovarian
[4] = tested on: OVCAR-4 ovarian
[5] = tested on: SNB-75 CNS
[6] = tested on: HCC-2998 colon
[7] = tested on: RXF 393 renal
[8] = tested on: 786-0 renal
[9] = tested on: M14 melanoma
[10] = tested on: SN12C renal
[11] = tested on: SF-539 CNS
[12] = tested on: K-562 leukemia
[13] = tested on: NCI-H23 lung
[14] = tested on: SK-MEL-28 melanoma
[15] = tested on: SK-OV-3 ovarian
[16] = tested on: NCI-H522 lung
[17] = tested on: SK-MEL-2 melanoma
[18] = tested on: LOX IMVI melanoma
[19] = tested on: HOP-62 NSCLC
[20] = tested on: SK-MEL-5 melanoma
[21] = tested on: NCI/ADR-RES ovarian
[22] = tested on: CCRF-CEM leukemia
[23] = tested on: SF-268 CNS
[24] = tested on: TK-10 renal
[25] = tested on: DU-145 prostate
[26] = tested on: MALME-3M melanoma
[27] = tested on: PC-3 prostate
[28] = tested on: UACC-62 melanoma
[29] = tested on: A549 NSCLC
[30] = tested on: COLO 205 colon
[31] = tested on: KM12 colon
[32] = tested on: MOLT-4 leukemia
[33] = tested on: UACC-257 melanoma
[34] = tested on: EKVX NSCLC
[35] = tested on: SF-295 CNS
[36] = tested on: T-47D breast
[37] = tested on: CAKI-1 renal
[38] = tested on: RPMI-8226 leukemia
[39] = tested on: MCF7 breast
[40] = tested on: MDA-N
[41] = tested on: HCT-15 colon
[42] = tested on: SNB-19 CNS
[43] = tested on: HCT-116 colon
[44] = tested on: U251 CNS
[45] = tested on: IGROV1 ovarian
[46] = tested on: MDA-MB-231 breast
[47] = tested on: NCI-H226 lung
[48] = tested on: HT29 colon
[49] = tested on: HOP-92 NSCLC
[50] = tested on: NCI-H460 lung
[51] = tested on: OVCAR-8 ovarian
[52] = tested on: SW-620 colon
[53] = tested on: UO-31 renal
[54] = tested on: HL-60(TB) leukemia
[55] = tested on: HS 578T breast

Measured: TGI

c1ccc(CSC(SCc2ccccc2)c2ccc3c(c2)OCO3)cc1
> 10 µM: all assays above
